Tests used:
corn = test: Test B pre/postemergence corn; type: in vivo, Zea mays
In short: (§1)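 Herbicidal effect was estimated by eye on a ten-point control scale after plants spent twelve to sixteen days in a greenhouse following soil or foliar treatment. Foliar sprays targeted plants at one to four leaves; all doses were formulated in a non-phytotoxic solvent with surfactant.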

wheat = test: Test B pre/postemergence wheat; type: in vivo, Triticum aestivum
In short: as §1

cocklebur = test: Test B pre/postemergence cocklebur; type: in vivo, Xanthium strumarium
In short: as §1

velvetleaf = test: Test B pre/postemergence velvetleaf; type: in vivo, Abutilon theophrasti
In short: as §1

giant foxtail = test: Test B pre/postemergence giant foxtail; type: in vivo, Setaria faberii
In short: as §1

purple nutsedge = test: Test B pre/postemergence purple nutsedge; type: in vivo, Cyperus rotundus
In short: as §1

rape = test: Test B pre/postemergence rape; type: in vivo, Brassica napus
In short: as §1

crabgrass = test: Test B pre/postemergence crabgrass; type: in vivo, Digitaria sanguinalis
In short: as §1

morningglory = test: Test B pre/postemergence morningglory; type: in vivo, Ipomoea hederacea
In short: as §1

sugar beet = test: Test B pre/postemergence sugar beet; type: in vivo, Beta vulgaris
In short: as §1

pigweed = test: Test B pre/postemergence pigweed; type: in vivo, Amaranthus retroflexus
In short: as §1

soybean = test: Test B pre/postemergence soybean; type: in vivo, Glycine max
In short: as §1

blackgrass = test: Test B pre/postemergence blackgrass; type: in vivo, Alopecurus myosuroides
In short: as §1

[1] = Postemergence, Rate 125 g/ha, scale of 0 to 10 where 0 is no effect and 10 is complete control
[2] = Preemergence, Rate 62 g/ha, scale of 0 to 10 where 0 is no effect and 10 is complete control
[3] = Preemergence, Rate 125 g/ha, 0 is no effect, 10 is complete control
[4] = Preemergence, Rate 250 g/ha, scale 0 to 10, 0 is no effect, 10 is complete control
[5] = Preemergence, Rate 500 g/ha, scale 0 to 10 (0 no effect, 10 complete control)
[6] = Rate 62 g/ha, Postemergence, scale of 0 to 10 where 0 is no effect and 10 is complete control
[7] = Rate 250 g/ha, Postemergence, scale 0 to 10, 0 is no effect, 10 is complete control
[8] = Rate 500 g/ha, Postemergence, scale 0 to 10

SMILES: CC(C)N(C(=O)n1oc(=O)n([C@@H](C)c2ccccc2)c1=O)c1ccc(Cl)cc1 [Compound 174]
- Corn plant response rating (corn; [1]): 0
- Corn plant response rating (corn; [2]): 0
- Corn plant response rating (0 to 10 scale) (corn; [3]): 0
- Corn plant response rating (corn; [4]): 0
- Corn plant response rating (corn; [5]): 0
- Corn plant response rating (corn; [6]): 0
- Plant response rating, Corn (corn; [7]): 0
- Corn plant response rating (corn; [8]): 0
- Wheat plant response rating (wheat; [2]): 0
- Wheat plant response rating (0 to 10 scale) (wheat; [3]): 0
- Wheat plant response rating (wheat; [4]): 0
- Wheat plant response rating (wheat; [5]): 0
- Plant response rating, Wheat (wheat; [7]): 0
- Wheat plant response rating (wheat; [8]): 0
- Cocklebur plant response rating (cocklebur; [1]): 1
- Cocklebur plant response rating (cocklebur; [2]): 0
- Cocklebur plant response rating (0 to 10 scale) (cocklebur; [3]): 0
- Cocklebur plant response rating (cocklebur; [4]): 0
- Cocklebur plant response rating (cocklebur; [5]): 0
- Cocklebur plant response rating (cocklebur; [6]): 0
- Plant response rating, Cocklebur (cocklebur; [7]): 2
- Cocklebur plant response rating (cocklebur; [8]): 3
- Velvetleaf plant response rating (velvetleaf; [2]): 0
- Velvetleaf plant response rating (0 to 10 scale) (velvetleaf; [3]): 0
- Velvetleaf plant response rating (velvetleaf; [4]): 0
- Velvetleaf plant response rating (velvetleaf; [5]): 0
- Plant response rating, Velvetleaf (velvetleaf; [7]): 0
- Velvetleaf plant response rating (velvetleaf; [8]): 0
- Giant foxtail plant response rating (giant foxtail; [1]): 0
- Giant foxtail plant response rating (giant foxtail; [2]): 8
- Giant foxtail plant response rating (0 to 10 scale) (giant foxtail; [3]): 9
- Giant foxtail plant response rating (giant foxtail; [4]): 10
- Giant foxtail plant response rating (giant foxtail; [5]): 10
- Giant foxtail plant response rating (giant foxtail; [6]): 0
- Plant response rating, Giant foxtail (giant foxtail; [7]): 0
- Giant foxtail plant response rating (giant foxtail; [8]): 1
- Nutsedge plant response rating (purple nutsedge; [1]): 0
- Nutsedge plant response rating (purple nutsedge; [2]): 0
- Nutsedge plant response rating (0 to 10 scale) (purple nutsedge; [3]): 0
- Nutsedge plant response rating (purple nutsedge; [6]): 0
- Plant response rating, Nutsedge (purple nutsedge; [7]): 0
- Nutsedge plant response rating (purple nutsedge; [8]): 0
- Rape plant response rating (rape; [1]): 0
- Rape plant response rating (rape; [2]): 0
- Rape plant response rating (0 to 10 scale) (rape; [3]): 0
- Rape plant response rating (rape; [4]): 0
- Rape plant response rating (rape; [5]): 4
- Rape plant response rating (rape; [6]): 0
- Plant response rating, Rape (rape; [7]): 0
- Rape plant response rating (rape; [8]): 2
- Crabgrass plant response rating (crabgrass; [1]): 4
- Crabgrass plant response rating (crabgrass; [2]): 2
- Crabgrass plant response rating (0 to 10 scale) (crabgrass; [3]): 8
- Crabgrass plant response rating (crabgrass; [4]): 8
- Crabgrass plant response rating (crabgrass; [5]): 10
- Crabgrass plant response rating (crabgrass; [6]): 2
- Plant response rating, Crabgrass (crabgrass; [7]): 7
- Crabgrass plant response rating (crabgrass; [8]): 8
- Morningglory plant response rating (morningglory; [1]): 5
- Morningglory plant response rating (morningglory; [2]): 0
- Morningglory plant response rating (0 to 10 scale) (morningglory; [3]): 0
- Morningglory plant response rating (morningglory; [4]): 0
- Morningglory plant response rating (morningglory; [5]): 0
- Morningglory plant response rating (morningglory; [6]): 3
- Plant response rating, Morningglory (morningglory; [7]): 5
- Morningglory plant response rating (morningglory; [8]): 5
- Sugarbeets plant response rating (sugar beet; [1]): 0
- Sugarbeets plant response rating (sugar beet; [2]): 3
- Sugarbeets plant response rating (0 to 10 scale) (sugar beet; [3]): 3
- Sugarbeets plant response rating (sugar beet; [4]): 6
- Sugarbeets plant response rating (sugar beet; [5]): 6
- Sugarbeets plant response rating (sugar beet; [6]): 0
- Plant response rating, Sugarbeets (sugar beet; [7]): 6
- Sugarbeets plant response rating (sugar beet; [8]): 6
- Redroot pigweed plant response rating (pigweed; [1]): 4
- Redroot pigweed plant response rating (pigweed; [2]): 0
- Redroot pigweed plant response rating (0 to 10 scale) (pigweed; [3]): 6
- Redroot pigweed plant response rating (pigweed; [4]): 8
- Redroot pigweed plant response rating (pigweed; [5]): 9
- Redroot pigweed plant response rating (pigweed; [6]): 0
- Plant response rating, Redroot pigweed (pigweed; [7]): 6
- Redroot pigweed plant response rating (pigweed; [8]): 6
- Soybean plant response rating (soybean; [1]): 2
- Soybean plant response rating (soybean; [2]): 0
- Soybean plant response rating (0 to 10 scale) (soybean; [3]): 0
- Soybean plant response rating (soybean; [4]): 0
- Soybean plant response rating (soybean; [5]): 0
- Soybean plant response rating (soybean; [6]): 2
- Plant response rating, Soybean (soybean; [7]): 2
- Soybean plant response rating (soybean; [8]): 4
- Blackgrass plant response rating (blackgrass; [1]): 0
- Blackgrass plant response rating (blackgrass; [2]): 0
- Blackgrass plant response rating (0 to 10 scale) (blackgrass; [3]): 2
- Blackgrass plant response rating (blackgrass; [4]): 2
- Blackgrass plant response rating (blackgrass; [5]): 2
- Blackgrass plant response rating (blackgrass; [6]): 0
- Plant response rating, Blackgrass (blackgrass; [7]): 0
- Blackgrass plant response rating (blackgrass; [8]): 3
